The source of these data is US20230227508A1, “SPLIT INTEIN-BASED SELECTION FOR PEPTIDE BINDERS” (priority 2020, published 2023).

pKd: −log10 of the molar value. Entries after “also recorded” stand apart in the source; their conditions may differ. No end group written: not given here.

Test [1] relates to methicillin-resistant Staphylococcus aureus (MRSA), vancomycin-resistant Enterococcus faecium (VRE), Streptococcus pneumoniae. Description: Dilution series, dose-dependent killing of MDR clinical isolates. The test is classed as cell-based. The settings on record: for dose-dependent antimicrobial activity against at least one strain: 2-fold serial dilution of SPE-purified peptide from liter scale fermentation.

For another test, the system named is Lactobacillus crispatus. The experiment in a line: Antimicrobial activity against Lactobacillus crispatus. The test is classed as cell-based. As to conditions: FIG. 57D.
The test system of test [2] is indicator strains from niches of the human microbiome (Table 11). Description: 96-well antimicrobial profiling, residual growth (OD600). As to conditions: for antimicrobial activity (fingerprint, residual growth): set amount of SPE purified RiPP, large panel of indicator strains; for activity against strains of the alimentary tract: Bifidobacterium adolescenits, Bifidobacterium longum, Sellimonas intestinalis, Streptococcus dysgalactiae. The test is classed as cell-based.

For test [3], the system named is human microbiome-associated strains (Staphylococcus aureus, Streptococcus infantarius, Streptococcus dysgalactiae, Pediococcus acidilactici …). The test is classed as cell-based. As to conditions: microtiter-purified RiPPs; initial test set of indicator strains.
A further test deals with Streptococcus pneumoniae. Description: Dilution series against Streptococcus pneumoniae. It counts as cell-based. The settings on record: serial dilution of SPE-purified peptide.
Another test deals with their target. As to conditions: read-out: binding to their target; cited from earlier work.
Test [4] concerns the target SARS-CoV-2 Spike RBD (residues 328-533) as bait (Severe acute respiratory syndrome coronavirus 2, UniProt P0DTC2).

With GSRWWQGVLPTVSHECRMNSFQHIFTCC [AMK-687], in test [1], the “antimicrobial activity against MDR clinical isolates (potency, spectrum, in words)” value was “particularly potent and broad-spectrum antimicrobial activity against all four isolates”; the “dose-dependent antimicrobial activity against at least one strain” value (from here on “dose-dependent antimicrobial activity”) was “Dose-dependent antimicrobial activity”. Further, in the test with Lactobacillus crispatus, the “activity against Lactobacillus crispatus” value is listed as “even more pronounced activity”. Besides, the “antimicrobial activity (fingerprint, residual growth)” value in test [2] is on record as “active; also recorded: remarkable antimicrobial activity”. In test [3], the zones of inhibition entry is reported as “varying zones of inhibition”.

GGDGVMHTLTHECHMNTWQFLLTCC [AMK-417]: in test [1], the “dose-dependent antimicrobial activity” value is “Dose-dependent antimicrobial activity”. Also, the “antimicrobial activity (fingerprint, residual growth)” value in test [2] is given as “active”.

On to GLIYGKYRDVLSGARLVTPPEVALRLVPR [AMK-917], for which the “antimicrobial activity (fingerprint, residual growth)” value in test [2] is on record as “active”.

As to “GGWFTAIQLTLAGRCGNWFTGSFECTSNNVKCG [AMK-287]”, the “dose-dependent antimicrobial activity” value in test [1] was “Dose-dependent antimicrobial activity”. Further, in test [2] (5 Streptococcal strains of the panel), the “activity against other Streptococci (strains with significant activity, spectrum)” value is “narrow spectrum of activity”. Moreover, in test [2], the “activity against strains of the alimentary tract” value (“activity against strains” for short) is “pronounced activity” and the “antimicrobial activity (fingerprint, residual growth)” value is on record as “active”. For the same compound, the “activity against Streptococcus pneumoniae” value in the test on Streptococcus pneumoniae is on record as “pronounced activity”. The zones of inhibition entry in test [3] was “varying zones of inhibition”.

“microcin J25 (GGAGHVPEYFVGIGTPISFYG; ends and bridges not checked; UniProt Q9X2V7 38-58, looked up)”: the pKd at their target is 5.70.

As to “GWQTAFRLTMQGRCGGVFTLSYECATPHVSCG [AMK-916]”, in test [2], the “activity against strains” value is given as “pronounced activity” and the “antimicrobial activity (fingerprint, residual growth)” value is recorded as “active”.

Take “GWLWGSYRDVYGVWHGPRTNFNGAGGSSEWRLVPR [AMK-1009]”: in test [2], the “antimicrobial activity (fingerprint, residual growth)” value is reported as “active”.

Consider GGKNGVFKTISHECHLNTWAFLATCCS [AMK-691], for which the “dose-dependent antimicrobial activity” value in test [1] is recorded as “Dose-dependent antimicrobial activity”. Further, the “activity against Lactobacillus crispatus” value in the test on Lactobacillus crispatus was “demonstrated activity”. In addition, the “antimicrobial activity (fingerprint, residual growth)” value in test [2] is listed as “active”. In test [3], the zones of inhibition entry was “varying zones of inhibition”.

In the case of “GGGWYTAFKLTLAGRCGLCFTCSYECTSNNVHC [AMK-286]”, in test [2], the “activity against strains” value is given as “pronounced activity” and the “antimicrobial activity (fingerprint, residual growth)” value is given as “active”.

Turning to “VCKYGEWCEIVEI [VCKYGEWCEIVEI (SEQ ID NO: 24)]”, in test [4], the “specificity for the Spike RBD as bait over Mdm2*” value worked out at 14 fold and the “transcriptional output of circuit” value is recorded as “strong transcriptional output”.

Consider GWYWGNRRDIYGALRYANKRLVPR [AMK-1010], for which the “antimicrobial activity (fingerprint, residual growth)” value in test [2] is reported as “active”.

`CN[C@H](CC(C)C)C(=O)N[C@H]1C(=O)N[C@@H](CC(N)=O)C(=O)N[C@H]2C(=O)N[C@H]3C(=O)N[C@H](C(=O)N[C@H](C(=O)O)c4cc(O)cc(O)c4-c4cc3ccc4O)[C@H](O)c3ccc(c(Cl)c3)Oc3cc2cc(c3O[C@@H]2O[C@H](CO)[C@@H](O)[C@H](O)[C@H]2O[C@H]2C[C@](C)(N)[C@H](O)[C@H](C)O2)Oc2ccc(cc2Cl)[C@H]1O` [vancomycin]: the pKd on their target is about 6.00.

As to “GHVELMNADKVKCKSTSTTKSCSSTSTTSVD [AMK-720]”, the “antimicrobial activity (fingerprint, residual growth)” value in test [2] was “exceptionally broad antimicrobial activity”.
